Data taken from patent US20240207409A1, “ORAL DELIVERY OF OLIGONUCLEOTIDES” (CiVi Biopharma, Inc., priority 2021, published 2024).
Like-named read-outs stand apart in the source and are kept apart here. {GalNAc3NHC6} = trivalent GalNAc moiety with NHC6 linker, (GalNAc3)(NHC6); l = locked nucleic acid (LNA); d = 2'-deoxy (DNA)

Legend:
PCSK9 = PCSK9 reduction after daily oral CIVI 008/SNAC capsules for 42 days (Example 1); format: in vivo, Cynomolgus monkey; settings: daily oral for 42 days
Protocol: (§1) Toxicity results: The study was conducted to GLP standards and monitored the following toxicity parameters throughout the study (pre-dose, day 14, 29, 42, and end of recovery): • Hematology: red blood cell (erythrocyte) count, hemoglobin, hematocrit, mean corpuscular volume, mean corpuscular hemoglobin, mean corpuscular hemoglobin, concentration, red cell distribution width, absolute reticulocyte count, platelet count, white blood cell (leukocyte) count, absolute neutrophil count, absolute lymphocyte count, absolute monocyte count, absolute eosinophil count, absolute basophil count, absolute large unstained cell count, blood smear. • Clinical chemistry, PCSK9 and lipids: urea nitrogen, creatinine, total protein, albumin, globulin, albumin:globulin ratio, total bilirubin, aspartate aminotransferase, alanine aminotransferase, alkaline phosphatase, gamma glutamyltransferase, creatine kinase, calcium, inorganic phosphorus, sodium, potassium, chloride, high density lipoproteins, low density lipoprotein, very low density lipoprotein, total cholesterol, triglycerides.

plasma LDL-cholesterol = experiment: Plasma LDL-cholesterol after daily oral CIVI 008/SNAC capsules for 42 days and recovery (Example 1); format: in vivo, Cynomolgus monkey; settings: for LDL-c in control animals: control capsules, throughout the study
Protocol: as §1

[1] = Oral capsule PK study of CIVI 008 without GalNAc using 5-CNAC as carrier (Example 5); format: in vivo, Cynomolgus monkey; settings: single oral capsule, 20 mg/200 mg 5-CNAC; larger
Source text: As shown in previous Examples 1 and 3, orally dosed CIVI 008 with GalNAc is rapidly internalized in the liver by the GalNAc receptor, with very little CIVI 008 escaping into general circulation at doses below that required for saturation of the GalNAc receptor. In many instances the objective is to target genes that are expressed in organs other than the liver. […] The objective of this study was to determine the systemic exposure of orally administered CIVI 008 without the GalNAc conjugate, and to compare the exposure to that of a similar oral dose of CIVI 008 with GalNAc.
(§2) Study outline: Dry blended capsules (20 mg CIVI 008 without GalNAc/200 mg 5-CNAC) were manufactured from uniform dry blended formulations, that were filled into enterically coated Size 0, hard shell gelatin capsules. A total of 10 Cynomolgus monkeys (5 males and 5 females) were each administered a single capsule by oral gavage, and blood samples for PK analysis were drawn pre-dose and 0.5, 1.5, 3 and 5 hours post-dosing.

[2] = Liver and intestinal tissue concentrations of CIVI 008 (Example 1); format: in vivo, Cynomolgus monkey
Source text: The purpose of this study was to provide information on the capsule dosing of CIVI 008 for further clinical trials in humans.

[3] = Repeat-dose toxicity study to GLP standards, oral capsule (Example 1); settings: cynomolgus monkey, in vivo
Protocol: as §1

[4] = Oral capsule toxicokinetic study of CIVI 008 using 5-CNAC as carrier (Example 3); format: in vivo, Cynomolgus monkey; settings: for increase of AUC with dose of CIVI 008 / increase of Cmax with dose of CIVI 008: constant dose of 5-CNAC
Source text: The objectives of this study were to determine the ability of 5-CNAC [Disodium N-(5-Chorosalicyloyl)-8-aminocaprylate] to facilitate oral uptake of CIVI 008 and to determine the manufacture method and dosing paradigm of CIVI 008/5-CNAC capsules that provide the most efficient oral uptake of CIVI 008 when administered to Cynomolgus monkeys of Mauritian origin.
Study outline: A total of 10 Cynomolgus monkeys (5 males and 5 females) were each dosed with 2 group A capsules on Monday and Wednesday in week 1, followed by 4 days of dosing holiday. This Monday and Wednesday dosing scheme was continued in weeks 2, 3, 5, 6, 7, 8, 13, 14, 15 and 17 using 2 group B-capsules per dose occasion in week 2, and 1 capsule of groups C to K per dose occasion in their respective weeks. During the dosing period, blood samples for PK analysis were drawn pre-dose and 0.5, 1.5, 3 and 5 hours post-dosing on Mondays and Wednesdays. Samples for clinical chemistry and hematology (see example 1) were taken pre-study and end of study.

[5] = Half-life and accumulation of CIVI 008 in the liver; format: in vivo, non-human primates; settings: expected after 7-weeks of once daily dosing
[6] = cynomolgus monkey, in vivo, po
Protocol: The objectives of this study were to evaluate the toxicity and reversibility of CIVI 008 and to determine the pharmacology, plasma exposure and target organ accumulation of CIVI 008 when administered daily by oral capsule to the Cynomolgus monkey of Mauritian origin for 42 days compared to administration by the subcutaneous route administered once every two weeks (investigated previously).
Oral Capsule: Capsules containing CIVI 008 (10 mg)/SNAC (100 mg) were manufactured as uniform dry blend formulations, that were filled into Size 4 hard shell gelatin capsules that were enterically coated post fill.

[7] = Oral capsule PK study of an oligo against Factor VII, with or without GalNAc, using 5-CNAC as carrier (Example 6); format: in vivo, Cynomolgus monkey; settings: for PK parameters compared to the corresponding CIVI 008 oligos: with and without GalNac
Protocol: as §2, with “(20 mg Factor FVII with or without GalNac/200” for “(20 mg CIVI 008 without GalNAc/200”, “or without GalNac/200 mg 5-CNAC)” for “008 without GalNAc/200 mg 5-CNAC)”, “single capsule of either oligo by oral” for “single capsule by oral”

[8] = dose increased further than 25 mg
[9] = oral, two group A capsules (each 10 mg CIVI 008/100 mg 5-CNAC, size 4)
[10] = size 4 (group A) to size 0 (group B) capsules
[11] = single oral capsule, 20 mg/200 mg 5-CNAC
[12] = single oral capsule, 20 mg/200 mg 5-CNAC, higher

O=C([O-])CCCCCCCNC(=O)c1ccccc1O.[Na+] [SNAC, sodium 8-(2-hydroxybenzamido)octanoate, reference compound]
mean PCSK9 reductions in control animals (PCSK9): comparatively small
LDL-c in control animals (plasma LDL-cholesterol): fluctuated around baseline values

CIVI 008 without GalNAc: 16 nt LNA gapmer AbsAbsTbsdGsdCsdTsdAsdCsdAsdAsdAsdAsdCsCbsCbsAb, SEQ ID NO 134, no GalNAc moiety (AATGCTACAAAACCCA; sugars from the 5' end l3 d10 l3, all phosphorothioate, methylation of C not given here)
AUC relative to a similar dose of CIVI 008 with GalNac [1]: ~8 fold
Cmax relative to a similar dose of CIVI 008 with GalNac [1]: ~8 fold

CIVI 008: GalNac conjugated LNA-gapmer antisense oligonucleotide targeting PCSK9 (SEQ ID NO: 134), cepadacursen formulated for oral administration (AATGCTACAAAACCCA; LNA gapmer with GalNAc conjugate, pattern not given here)
concentrations of CIVI 008 in intestinal segments ([2]; all segments, after QD oral dosing for 42 days): measurable concentrations
concentration of CIVI 008 in the liver during the recovery period ([2]; declined during recovery, 3-week timepoint): still present in measurable quantities
difference in liver concentrations between the SQ and PO arms ([2]; measured at the end of the dosing period): approximately one
mean PCSK9 reductions in control animals (PCSK9): comparatively small
LDL-c in control animals (plasma LDL-cholesterol): fluctuated around baseline values
return of LDL to baseline (plasma LDL-cholesterol; end of recovery): had yet to fully return to baseline
LDL levels after the end of dosing (plasma LDL-cholesterol; recovery period after 42 days of dosing): maintained for two weeks post-dosing
macroscopic or microscopic findings (local or systemic effects) [3]: no macroscopic or microscopic findings
local histopathological changes in the intestinal tract (duodenum, jejunum, ileum and colon) ([3]; po): no local histopathological changes
increase of AUC with dose of CIVI 008 [4, 8]: more than dose proportional
increase of Cmax with dose of CIVI 008 [4, 8]: more than dose proportional
increase of AUC with dose of CIVI 008 ([4]; up to 25 mg CIVI 008): dose proportionally
increase of Cmax with dose of CIVI 008 ([4]; up to 25 mg CIVI 008): dose proportionally
AUC profiles, dry blended vs freeze-dried capsules ([4]; dose range 5 mg to 30 mg): very similar
Cmax profiles, dry blended vs freeze-dried capsules ([4]; dose range 5 mg to 30 mg): very similar
effect of manufacture method on intestinal absorption ([4]; dry blending vs co-dissolution followed by freeze-drying): did not appear to affect
AUC0-5 with 5-CNAC carrier compared to a similar dose using SNAC as carrier ([4]; oral capsules, vs Example 1): increase
Cmax with 5-CNAC carrier compared to a similar dose using SNAC as carrier ([4]; oral capsules, vs Example 1): increase
concentrations of CIVI 008 in the plasma [4, 9]: measurable concentrations
mean Tmax [4, 9]: ≤ 30 min
mean Tmax on increasing capsule size [4, 10]: didn't change
mean plasma PK profile on increasing capsule size [4, 10]: didn't change
liver concentration relative to its steady state level [5]: > 80%
form of CIVI 008 detected in plasma (HPLC peak) [6]: mixture of parent compound and metabolites
form of CIVI 008 detected in plasma (HPLC retention time) [6]: absorbed intact
mean Tmax [6]: ≤ 30 min

GalNac conjugated Factor FVII oligo: 13 nt ASO against Factor VII, SEQ ID NO 158, with (GalNAc3)(NHC6) moiety (antisense GCACCACGGTCCA; sugars from the 5' end l2 d8 l3, all phosphorothioate, 5' {GalNAc3NHC6}*, methylation of C not given here)
concentrations in the plasma [7, 11]: measurable concentrations
PK parameters compared to the corresponding CIVI 008 oligos [7]: quite similar

unconjugated Factor FVII oligo: 13 nt ASO against Factor VII, SEQ ID NO 158, GbsCbsdAsdCsdCsdAsdCsdGsdGsdTsCbsCbsAb (antisense GCACCACGGTCCA; sugars from the 5' end l2 d8 l3, all phosphorothioate, methylation of C not given here)
concentrations in the plasma [7, 11]: measurable concentrations
AUC relative to the GalNac conjugated Factor FVII oligo [7, 12]: ~3.5 fold
Cmax relative to the GalNac conjugated Factor FVII oligo [7, 12]: ~3.5 fold
PK parameters compared to the corresponding CIVI 008 oligos [7]: quite similar
